Data from PubChem BioAssay AID1794801 (Yongcheng Song lab at Baylor College of Medicine, 2022).
Active and inactive are the calls of the source.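 Rule for the calls: active = compounds that disrupt AF9 binding to the DOT1L peptide with an IC50 under 30 µM; inactive = the rest.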

Target: Protein AF-9 (Homo sapiens) (UniProt P42568)
Assay: AF9–DOT1L protein-protein binding disruptors – biochemical, AlphaLISA, MBP-tagged AHD, biotinylated peptide, dose response (AID 1794801)
Conditions: MBP-AF9 AHD and biotin-DOT1L peptide

Chain of Protein AF-9 (Homo sapiens) (P42568 whole entry, looked up): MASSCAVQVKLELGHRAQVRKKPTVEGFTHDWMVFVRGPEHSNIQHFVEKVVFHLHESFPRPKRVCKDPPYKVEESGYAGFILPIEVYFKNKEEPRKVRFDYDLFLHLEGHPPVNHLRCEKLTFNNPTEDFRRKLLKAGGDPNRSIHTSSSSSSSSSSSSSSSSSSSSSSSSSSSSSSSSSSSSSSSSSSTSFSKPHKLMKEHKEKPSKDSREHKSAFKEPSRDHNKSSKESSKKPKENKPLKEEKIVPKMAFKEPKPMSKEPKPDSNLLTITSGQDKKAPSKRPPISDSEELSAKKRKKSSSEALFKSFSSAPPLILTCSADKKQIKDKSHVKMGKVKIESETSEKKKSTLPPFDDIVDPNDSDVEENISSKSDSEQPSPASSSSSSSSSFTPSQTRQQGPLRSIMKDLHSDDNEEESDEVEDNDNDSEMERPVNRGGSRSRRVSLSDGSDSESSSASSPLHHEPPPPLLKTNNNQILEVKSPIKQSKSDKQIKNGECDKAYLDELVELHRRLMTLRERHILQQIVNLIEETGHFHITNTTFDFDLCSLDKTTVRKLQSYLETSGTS

Row | SMILES | IC50
1 | O=C(NCC1CCNCC1)c1c[nH]c2cc(-c3ccc(N4CCCC4)cc3)ccc12 | 2.9 µM
2 | O=C(NCC1CCNCC1)c1cc2cc(-c3cn[nH]c3)ccc2[nH]1 | > 30 µM (inactive)
3 | O=C(NCC1CCNCC1)c1cc2cc(-c3ccc(N4CCCC4)cc3)ccc2[nH]1 | 2.7 µM
4 | O=C(NCC1CCNCC1)c1cc2cc(-c3ccc(N4CCCCC4)cc3)ccc2s1 | 2.5 µM
5 | O=C(NCC1CCNCC1)c1cc2ccc(-c3ccc(N4CCCC4)cc3)cc2[nH]1 | 2.8 µM
6 | NCc1ccc(-c2ccc3cc(C(=O)NCC4CCNCC4)oc3c2)cc1 | > 30 µM (inactive)
7 | O=C(NCC1CCNCC1)c1cc2ccc(Nc3ccc(N4CCCCC4)cc3)cc2o1 | 4.6 µM
8 | O=C(NCC1CCNCC1)c1cc2ccc(-c3ccc(N4CCCCC4)cc3)cc2[nH]1 | 3.3 µM
9 | O=C(NCC1CCNCC1)c1c[nH]c2cc(-c3ccc(N4CCCCC4)cc3)ccc12 | 4.5 µM
10 | O=C(NCC1CCNCC1)c1cc2ccc(Nc3ccc(N4CCCCC4)cc3)cc2s1 | 2.3 µM
11 | O=C(NCC1CCNCC1)c1cc2ccc(-c3ccc(N4CCCC4)cc3)cc2s1 | 5.3 µM
12 | O=C(NCC1CCNCC1)c1cc2cc(-c3ccc(N4CCCCC4)cc3)ccc2[nH]1 | 3.6 µM
13 | O=C(NCC1CCNCC1)c1cc2ccc(-c3ccc(N4CCCCC4)cc3)cc2s1 | 1.6 µM
